O=P1(O)Oc2ccc3ccccc3c2-c2c(ccc3ccccc23)O1
solubility (mole fraction)
Conditions | 288.15 K | 293.15 K | 298.15 K | 303.15 K | 308.15 K | 313.15 K | 318.15 K | 323.15 K | 328.15 K | 333.15 K
in ethanol | 0.00444 | 0.00462 | 0.00489 | 0.00511 | 0.00533 | 0.00544 | 0.00573 | 0.00601 | 0.00632 | 0.00664
in ethyl acetate | 0.000286 | 0.000331 | 0.000387 | 0.000434 | 0.000491 | 0.000521 | 0.000555 | 0.000594 | 0.000618 | 0.000645
in isobutanol | 0.0035 | 0.00381 | 0.0041 | 0.0045 | 0.00491 | 0.00531 | 0.00575 | 0.00622 | 0.00672 | 0.00738
in isopropanol | 0.00339 | 0.00354 | 0.0038 | 0.00404 | 0.00445 | 0.00491 | 0.00563 | 0.00656 | 0.00763 | 0.00891
in methanol | 0.00336 | 0.00347 | 0.00373 | 0.00411 | 0.00452 | 0.00486 | 0.0052 | 0.00555 | 0.00607 | 0.00658
in n-butanol | 0.00698 | 0.00709 | 0.0073 | 0.00763 | 0.00802 | 0.00844 | 0.00887 | 0.00932 | 0.00996 | 0.0107
in n-propanol | 0.00484 | 0.0053 | 0.00588 | 0.00652 | 0.00731 | 0.00832 | 0.00942 | 0.0106 | 0.0123 | 0.0142

Reference: BigSolDB 2.1
